Reference: paper PMC2663715, “Snapshots of Catalysis in the E1 Subunit of the Pyruvate Dehydrogenase Multienzyme Complex” (Structure(London, England:1993), 2008)

Legend:
[1] = biological target: T1, E1p/E2p-PSBD complex (pyruvate dehydrogenase E1 subunit with E2p peripheral subunit binding domain) (Geobacillus stearothermophilus, UniProt P21873+P21874); test: X-ray crystal structure, […] A
T1 construct: gene pdhA; alpha2beta2 heterotetramer with one E2p PSBD; recombinant in E. coli TG1 recO (plasmids pKBstE1a, pKBstE1b); he-3-deazaThDP crystals grown with E2p di-domain (lipoyl domain-linker-PSBD); with Dihydrolipoyllysine-residue acetyltransferase component of pyruvate dehydrogenase complex

[2] = biological target: T2, E1p/E2p-PSBD complex (pyruvate dehydrogenase E1 subunit with E2p peripheral subunit binding domain) (Geobacillus stearothermophilus, UniProt P21873+P21874, P21873:I207A); test: X-ray crystal structure, […] A; conditions: 5 mM 3-deazaThDP; crystals at pH 5.0; ThDP site
T2 construct: gene pdhA; alpha2beta2 heterotetramer with one E2p PSBD; recombinant in E. coli TG1 recO (plasmids pKBstE1a, pKBstE1b); he-3-deazaThDP crystals grown with E2p di-domain (lipoyl domain-linker-PSBD); with Dihydrolipoyllysine-residue acetyltransferase component of pyruvate dehydrogenase complex

Row | Compound | X-ray crystal structure, 2.3 A ([1]; 10 mM pyruvate soak 1 week into 3-deazaThDP crystals, density in two of four sites, orientation not definitive) | X-ray crystal structure, 2.3 A ([1]; Mg2+, pyruvate soaked in, ThDP site) | X-ray crystal structure, 2.35 A [2]
1 | CC(=O)C(=O)O [pyruvate] | density in the active-site pocket that is likely to be due to pyruvate binding | – | –
2 | Cc1ncc(Cc2csc(CCOP(=O)(O)OP(=O)(O)O)c2C)c(N)n1 [3-deazaThDP] | – | we have solved the structure of the E1p/E2p-PSBD complex with bound 3-deazaThDP and pyruvate | crystal structure of the complex of 3-deazaThDP with the G. stearothermophilus E1p I206Aα mutant
